# Experimental data: ChEMBL document CHEMBL1122370 (J Med Chem, 1983)
# “And” between values parts separate entries of the source, which are not always exact repeats. Equal values may be shown once.
# Legend:
# L1210 [1] = assay: In vivo antitumor activity against L1210 leukemia in 5 mice measured as Increased life span at 40 mg/kg.; type: functional; settings: Mus musculus
# Mus musculus [2] = assay: Average weight of the mouse after treating with 20 mg/kg dose for 1 day.; type: functional; set-up: unit not given here
# L1210 [3] = assay: In vivo antitumor activity against L1210 leukemia in 5 mice measured as median survival range at 40 mg/kg; value ranges from(11-21); type: functional, Mus musculus
# Mus musculus [4] = assay: (§1) Average weight of the mouse after treating with 40 mg/kg dose for 7 days.; type: functional
# L1210 [5] = assay: In vivo antitumor activity against L1210 leukemia in 17 mice measured as T/C values; T/C = 17/9; type: functional, Mus musculus
# L1210 [6] = assay: In vivo antitumor activity against L1210 leukemia in 5 mice measured as median survival range at 20 mg/kg; Value ranges from(11-19); type: functional, Mus musculus
# L1210 [7] = assay: In vivo antitumor activity against L1210 leukemia in 5 mice measured as Increased life span at 20 mg/kg.; type: functional; settings: Mus musculus
# L1210 [8] = assay: In vivo antitumor activity against L1210 leukemia in 13 mice measured as T/C values; T/C = 13/9; type: functional, Mus musculus
# Mus musculus [9] = assay: Average weight of the mouse after treating with 20 mg/kg dose for 7 day.; type: functional
# Mus musculus [10] = assay: Average weight of the mouse after treating with 40 mg/kg dose for 1 day.; type: functional; set-up: unit not given here
# L1210 [11] = assay: In vivo antitumor activity against L1210 leukemia in 5 mice measured as median survival range at 280 mg/kg; Value ranges from(14-20); type: functional, Mus musculus
# Mus musculus [12] = assay: In vivo antitumor activity against L1210 leukemia in 5 mice measured as median survival range at 200 mg/kg; Value ranges from(13-18); type: functional
# Mus musculus [13] = assay: Average weight of the mouse after treating with 160 mg/kg dose for 1 day.; type: functional
# L1210 [14] = assay: In vivo antitumor activity against L1210 leukemia in 17 mice measured as T/C values(days); T/C = 17/9; type: functional, Mus musculus
# L1210 [15] = assay: In vivo antitumor activity against L1210 leukemia in 10 mice measured as Increased life span at 160 mg/kg.; type: functional; settings: Mus musculus
# Mus musculus [16] = assay: Average weight of the mouse after treating with 120 mg/kg dose for 7 days.; type: functional
# Mus musculus [17] = assay: In vivo antitumor activity against L1210 leukemia in 16 mice measured as T/C values(days); T/C = 16/9; type: functional
# Mus musculus [18] = assay: Average weight of the mouse after treating with 200 mg/kg dose for 1 day.; type: functional
# L1210 [19] = assay: In vivo antitumor activity against L1210 leukemia in 15 mice measured as T/C values(days); T/C = 15/9; type: functional, Mus musculus
# L1210 [20] = assay: In vivo antitumor activity against L1210 leukemia in 10 mice measured as Increased life span at 120 mg/kg.; type: functional; settings: Mus musculus
# Mus musculus [21] = assay: Average weight of the mouse after treating with 240 mg/kg dose for 1 day.; type: functional
# Mus musculus [22] = assay: In vivo antitumor activity against L1210 leukemia in 5 mice measured as Increased life span at 200 mg/kg.; type: functional
# L1210 [23] = assay: In vivo antitumor activity against L1210 leukemia in 5 mice measured as Increased life span at 240 mg/kg.; type: functional; settings: Mus musculus
# L1210 [24] = assay: In vivo antitumor activity against L1210 leukemia in 10 mice measured as median survival range at 160 mg/kg; Value ranges from(10-16).; type: functional, Mus musculus
# Mus musculus [25] = assay: Average weight of the mouse after treating with 200 mg/kg dose for 7 days.; type: functional
# Mus musculus [26] = assay: Average weight of the mouse after treating with 280 mg/kg dose for 7 days.; type: functional
# Mus musculus [27] = assay: Average weight of the mouse after treating with 160 mg/kg dose for 7 days.; type: functional
# Mus musculus [28] = assay: Average weight of the mouse after treating with 240 mg/kg dose for 7 days.; type: functional
# L1210 [29] = assay: In vivo antitumor activity against L1210 leukemia in 5 mice measured as median survival range at 240 mg/kg; Value ranges from(13-18); type: functional, Mus musculus
# L1210 [30] = assay: In vivo antitumor activity against L1210 leukemia in 10 mice measured as median survival range at 120 mg/kg; Value ranges from(9-15); type: functional, Mus musculus
# L1210 [31] = assay: In vivo antitumor activity against L1210 leukemia in 5 mice measured as Increased life span at 280 mg/kg.; type: functional; settings: Mus musculus
# Mus musculus [32] = assay: Average weight of the mouse after treating with 280 mg/kg dose for 1 day.; type: functional
# Mus musculus [33] = assay: Average weight of the mouse after treating with 120 mg/kg dose for 1 day.; type: functional
# L1210 [34] = assay: In vivo antitumor activity against L1210 leukemia in 13 mice measured as T/C values(days); T/C = 13/9; type: functional, Mus musculus
# Mus musculus [35] = assay: Average weight change in mouse after treating with 90 mg/kg dose for 7 days.; type: functional
# L1210 [36] = assay: In vivo anti tumor activity against L1210 leukemia in 5 mice measured as Increased life span at 180 mg/kg; type: functional; settings: Mus musculus
# L1210 [37] = assay: In vivo antitumor activity against L1210 leukemia in 5 mice measured as median survival range at 180 mg/kg; Value ranges from (14-23); type: functional, Mus musculus
# L1210 [38] = assay: In vivo antitumor activity against L1210 leukemia in 5 mice measured as median survival range at 90 mg/kg; Value ranges from (13-19); type: functional, Mus musculus
# L1210 [39] = assay: In vivo anti tumor activity against L1210 leukemia in 5 mice measured as Increased life span at 45 mg/kg; type: functional; settings: Mus musculus
# Mus musculus [40] = assay: Average weight change in mouse after treating with 180 mg/kg dose for 7 days.; type: functional
# Mus musculus [41] = assay: Average weight of the mouse after treating with 45 mg/kg dose for 1 day; type: functional
# Mus musculus [42] = assay: Average weight of the mouse after treating with 90 mg/kg dose for 1 day; type: functional
# Mus musculus [43] = assay: Average weight of the mouse after treating with 180 mg/kg dose for 1 day; type: functional
# L1210 [44] = assay: In vivo antitumor activity against L1210 leukemia in 5 mice measured as median survival range at 45 mg/kg; Value ranges from (11-13); type: functional, Mus musculus
# L1210 [45] = assay: In vivo anti tumor activity against L1210 leukemia in 5 mice measured as Increased life span at 90 mg/kg; type: functional; settings: Mus musculus
# Mus musculus [46] = assay: Average weight of the mouse after treating with 80 mg/kg dose for 7 days.; type: functional; set-up: unit not given beside the values
# L1210 [47] = assay: In vivo antitumor activity against L1210 leukemia in 5 mice measured as median survival range at 20 mg/kg; Value ranges from(12-14); type: functional, Mus musculus
# L1210 [48] = assay: In vivo antitumor activity against L1210 leukemia in 19 mice measured as T/C value; T/C = 19/9; type: functional, Mus musculus
# Mus musculus [49] = assay: as §1; type: functional; set-up: unit not given beside the values
# Mus musculus [50] = assay: Average weight of the mouse after treating with 80 mg/kg dose for 1 day.; type: functional; set-up: unit not given here
# L1210 [51] = assay: In vivo antitumor activity against L1210 leukemia in 5 mice measured as Increased life span.; type: functional, Mus musculus
# L1210 [52] = assay: In vivo antitumor activity against L1210 leukemia in 5 mice measured as median survival range at 40 mg/kg; Value ranges from(14-17); set-up: dose 40 mg/kg; settings: mouse
# L1210 [53] = assay: In vivo antitumor activity against L1210 leukemia in 5 mice measured as median survival range at 80 mg/kg; Value ranges from(13-20).; type: functional, Mus musculus
# Mus musculus [54] = assay: Average weight of the mouse after treating with 20 mg/kg dose for 7 days.; type: functional; set-up: unit not given beside the values
compound,measurement,setting,value
Cc1cc(C)c(COC(=O)CCC(NC(=O)c2ccc(N(C)Cc3cnc4nc(N)nc(N)c4n3)cc2)C(=O)OCc2c(C)cc(C)cc2C)c(C)c1 (stereo not drawn),ILS at 40 mg/kg,L1210 [1],88%
same,Average weight,Mus musculus [2],20.4
same,Range,L1210 [3],21
same,Weight change,Mus musculus [4],0
same,T/C,L1210 [5],9
same,Range,L1210 [6],19
same,ILS at 20 mg/kg,L1210 [7],44%
same,T/C,L1210 [8],9
same,Weight change,Mus musculus [9],0.8
same,Average weight,Mus musculus [10],22
CN(Cc1cnc2nc(N)nc(N)c2n1)c1c(Cl)cc(C(=O)NC(CCC(=O)O)C(=O)O)cc1Cl (stereo not drawn),Range,L1210 [11],20
same,Range,Mus musculus [12],18
same,Average weight,Mus musculus [13],22.5
same,T/C,L1210 [14],9
same,ILS at 160 mg/kg,L1210 [15],44%
same,Weight change,Mus musculus [16],2.4
same,T/C,Mus musculus [17],9
same,Average weight,Mus musculus [18],24.2
same,T/C,L1210 [19],9
same,ILS at 120 mg/kg,L1210 [20],22%
same,Average weight,Mus musculus [21],22.4
same,ILS at 200 mg/kg,Mus musculus [22],78%
same,ILS at 240 mg/kg,L1210 [23],67%
same,Range,L1210 [24],16
same,Weight change,Mus musculus [25],1.8
same,Weight change,Mus musculus [26],1.4
same,Weight change,Mus musculus [27],2.9
same,Weight change,Mus musculus [28],2.1
same,Range,L1210 [29],18
same,Range,L1210 [30],15
same,ILS at 280 mg/kg,L1210 [31],89%
same,Average weight,Mus musculus [32],21.4
same,Average weight,Mus musculus [33],22.4
same,T/C,L1210 [34],9
CCCCCCCCOC(=O)CCC(NC(=O)c1cc(Cl)c(N(C)Cc2cnc3nc(N)nc(N)c3n2)c(Cl)c1)C(=O)OCCCCCCCC (stereo not drawn),Weight change,Mus musculus [35],1.4 and 3.6
same,ILS at 180 mg/kg,L1210 [36],122%
same,Range,L1210 [37],23
same,Range,L1210 [38],19
same,ILS at 45 mg/kg,L1210 [39],44%
same,Weight change,Mus musculus [40],5.8
same,Average weight,Mus musculus [41],26.2
same,Average weight,Mus musculus [42],28.2
same,Average weight,Mus musculus [43],28.2
same,Range,L1210 [44],13
same,ILS at 90 mg/kg,L1210 [45],66%
CCCCOC(=O)C(CCC(=O)OCc1cccnc1)NC(=O)c1ccc(N(C)Cc2cnc3nc(N)nc(N)c3n2)cc1 (stereo not drawn),Weight change,Mus musculus [46],0.3
same,Range,L1210 [47],14
same,ILS at 40 mg/kg,L1210 [1],75%
same,T/C,L1210 [48],9
same,Weight change,Mus musculus [49],1.7
same,Average weight,Mus musculus [2],21.1
same,Average weight,Mus musculus [50],22
same,ILS,L1210 [51],137%
same,Range,L1210 [52],17
same,Range,L1210 [53],20
same,ILS at 20 mg/kg,L1210 [7],50%
same,Weight change,Mus musculus [54],2.4
same,Average weight,Mus musculus [10],21.2
